Reference: PMC8179109, “Introducing affinity and selectivity into galectin-targeting nanoparticles with fluorinated glycan ligands” (Chemical Science, 2020)

Molecular target: T1, BiGalHexNAcP (Bifidobacterium longum, UniProt A0ACD7UTG9)
T1 construct: gene BLIJ_2251
Test: one-pot two-enzyme synthesis of disaccharide (reverse phosphorolysis)
Format: biochemical
Conditions: acceptor; donor galactose 1-phosphate formed in situ by BiGalK; isolated on semi-preparative scale

T1 sequence (A0ACD7UTG9 entry or part of it): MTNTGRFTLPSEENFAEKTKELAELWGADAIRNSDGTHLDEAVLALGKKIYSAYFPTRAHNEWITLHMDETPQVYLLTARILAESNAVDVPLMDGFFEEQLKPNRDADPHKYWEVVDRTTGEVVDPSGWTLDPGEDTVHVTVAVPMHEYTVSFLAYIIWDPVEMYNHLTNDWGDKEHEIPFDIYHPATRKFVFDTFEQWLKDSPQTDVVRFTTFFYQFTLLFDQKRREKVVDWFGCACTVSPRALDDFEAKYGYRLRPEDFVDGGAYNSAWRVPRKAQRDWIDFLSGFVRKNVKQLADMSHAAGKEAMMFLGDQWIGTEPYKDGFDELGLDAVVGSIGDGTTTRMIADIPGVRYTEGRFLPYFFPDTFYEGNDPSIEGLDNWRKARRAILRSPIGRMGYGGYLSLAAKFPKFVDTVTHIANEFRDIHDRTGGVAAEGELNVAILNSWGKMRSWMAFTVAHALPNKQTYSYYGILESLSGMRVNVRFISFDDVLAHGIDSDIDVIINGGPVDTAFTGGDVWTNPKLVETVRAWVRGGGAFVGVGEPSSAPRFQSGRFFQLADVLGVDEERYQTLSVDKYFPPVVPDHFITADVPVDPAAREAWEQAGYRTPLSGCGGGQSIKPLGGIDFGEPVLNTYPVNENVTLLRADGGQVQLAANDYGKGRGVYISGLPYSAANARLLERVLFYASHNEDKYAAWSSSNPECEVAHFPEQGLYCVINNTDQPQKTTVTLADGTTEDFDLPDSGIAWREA

`CC(=O)N[C@H]1[C@H](OCCCN=[N+]=[N-])O[C@H](CO)[C@@H](O)[C@@H]1O[C@@H]1O[C@H](CO)[C@H](O)[C@H](O)[C@H]1O` [compound 15] was tested, and the “one-pot two-enzyme synthesis of disaccharide (reverse phosphorolysis)” value was “Lacto-N-biose and fluorinated derivatives were efficiently synthesized on semi-preparative scale”.
